Drawing on US11866430B2, “Naphthyridinone compounds useful as T cell activators” (priority 2018, dated 2024), this text covers IC50 and EC50 for 4 compounds.

For experiment [1], the system named is Jurkat AP1-luciferase Reporter. The experiment is described as follows: DGK AP1-Reporter Assay. Type of experiment: cell-based. The settings on record: Homo sapiens, Jurkat. The gist of the method:
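Jurkat cells carrying a lentiviral AP1-luciferase reporter received 30 nl compound per well for 20 min at 37 °C and 5% CO2. They were then stimulated for 6 h with anti-CD3 solution at 0.4 μg/mL; reference wells received 4 μg/mL and unstimulated wells medium only. Readout was Steady-Glo luciferase luminescence (RLU).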

A further experiment has as its target human DGKα (Homo sapiens (Human), UniProt P23743). The experiment is described as follows: biochemical. To be noted: detergent/lipid micelle substrate; read-out: DGKα IC50. The gist of the method:
(§1)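 Full-length human DGKα or DGKζ (C-terminal His tag, Sf9-expressed; 20 nM 4× stock) was preincubated 10 min at room temperature with PS/DAG octyl glucoside micelles in MOPS pH 7.5 buffer with MgCl2, CaCl2 and DTT. It was then started with ATP (300 uM addition) and run for 1 hr, with ADP-Glo luminescence read-out.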

A further experiment deals with human DGKζ (Homo sapiens (Human), UniProt Q13574). In words: DGKζ assay (detergent/lipid micelle substrate). The experiment is classed as biochemical. The gist of the method: as §1
Another experiment concerns naïve human CD8 T cells. The experiment is described as follows: CellTiter-Glo CD8 T Cell Proliferation Assay. The experiment is classed as cell-based. To be noted: Homo sapiens, T-cell, CellTiter-Glo CD8 T cell proliferation, normalized; read-out: CD8 GLO normalized EC50. Here is the method:
Frozen naïve human CD8 T cells were thawed in RPMI+10% FBS, incubated for 2 h in 37° C., and counted. The 384-well tissue culture plate was coated overnight at 4° C. with 20 μl anti-human CD3 at 0.1 μg/mL in plain RPMI, which was removed off the plate before 20 k/40 μl CD8 T cells with 0.5 μg/mL soluble anti-human CD28 were added to each well. The compounds were echoed to the cell plate immediately after the cells were plated. After 72 h incubation at 37° C. incubator, 10 μl CellTiter-glo reagent (Promega catalog number G7570) was added to each well. The plate was vigorously shaken for 5 mins, incubated at room temperature for another 15 mins and read on Envision for CD8 T cell proliferation. In analysis, 0.1 μg/mL anti-CD3 and 0.5 μg/mL anti-CD28 stimulated CD8 T cell signal was background.
For orientation: Cellular ATP, detected with luciferase, serves as a proxy for viable cell number.

A further experiment relates to Human venous whole blood. In words: Human Whole Blood IFN-γ Assay. Type of experiment: cell-based. To be noted: Homo sapiens. Here is the method: Human venous whole blood (22.5 μL per well), obtained from healthy donors, was pre-treated with compounds for one hour at 37° C. in a humidified 95% air/5% CO2 incubator. The blood was stimulated with 2.5 μL anti-human CD3 and anti-CD28 mAb at a final concentration of 1 μg/mL each for 24 hours at 37° C. IFN-γ in the supernatants was measured using AlphaLISA kit (Cat #AL217).

For experiment [2], the system named is OT-1 antigen-specific CD8+ T cells with MC38 tumor cells. In words: Murine Cytotoxic T Lymphocyte Assay (IFN-γ). The experiment is classed as cell-based, mouse. The settings on record: Mus musculus, MC-38, read-out: msCTL INF-γ IC50, murine CTL IFN-γ (table title reads INF-γ Whole Blood Normalized Agonist EC50). The source says: An antigen-specific cytolytic T-cell (CTL) assay was developed to evaluate functionally the ability of DGKα and DGKζ inhibitors to enhance effector T cell mediated tumor cell killing activity. CD8+ T-cells isolated from the OT-1 transgenic mouse recognize antigen presenting cells, MC38, that present the ovalbumin derived peptide […]. Recognition of the cognate antigen initiates the cytolytic activity of the OT-1 antigen-specific CD8+ T cells.
Functional CTL cells were generated as follows: OT-1 splenocytes from 8-12 week old mice were isolated and expanded in the presence of the […] peptide at 1 μg/mL and mIL2 at 10 U/mL. After three days, fresh media with mIL2 U/mL was added. On day 5 of the expansion, the CD8+ T cells were isolated and ready for use. Activated CTL cells may be stored frozen for 6 months. […] The cells were washed (3×) with fresh media to remove excess peptide. Finally, CTL cells that were pretreated with DGK inhibitors for 1 hour in a 96-well U bottom plate were combined with the antigen loaded MC38 tumor cells at a 1:10 ratio. The cells were then spun at 700 rpm for 5 min and placed in an incubator overnight at 37° C. After 24 hours, the supernatant was collected for analysis of IFN-γ cytokine levels by AlphaLisa purchased from Perkin Elmer.

For experiment [3], the system named is pre-activated CD4 T cells and Raji cells. In words: Raji CD4 T Cell IL2 Assay. To be noted: Homo sapiens, Raji. Type of experiment: cell-based.
Setting [4] is: read-out: API-Luciferase Reporter IC50, Table 3.
The mark [5] stands for this setting: read-out: DGKAP1 Lucif Reporter IC50, Table 4.
The mark [6] stands for this setting: detergent/lipid micelle substrate, read-out: DGKζ IC50.

Read-outs that look alike come from different tables or passages of the source.

Chain of human DGKα (P23743 other isoform, or with tags, fused parts or gaps): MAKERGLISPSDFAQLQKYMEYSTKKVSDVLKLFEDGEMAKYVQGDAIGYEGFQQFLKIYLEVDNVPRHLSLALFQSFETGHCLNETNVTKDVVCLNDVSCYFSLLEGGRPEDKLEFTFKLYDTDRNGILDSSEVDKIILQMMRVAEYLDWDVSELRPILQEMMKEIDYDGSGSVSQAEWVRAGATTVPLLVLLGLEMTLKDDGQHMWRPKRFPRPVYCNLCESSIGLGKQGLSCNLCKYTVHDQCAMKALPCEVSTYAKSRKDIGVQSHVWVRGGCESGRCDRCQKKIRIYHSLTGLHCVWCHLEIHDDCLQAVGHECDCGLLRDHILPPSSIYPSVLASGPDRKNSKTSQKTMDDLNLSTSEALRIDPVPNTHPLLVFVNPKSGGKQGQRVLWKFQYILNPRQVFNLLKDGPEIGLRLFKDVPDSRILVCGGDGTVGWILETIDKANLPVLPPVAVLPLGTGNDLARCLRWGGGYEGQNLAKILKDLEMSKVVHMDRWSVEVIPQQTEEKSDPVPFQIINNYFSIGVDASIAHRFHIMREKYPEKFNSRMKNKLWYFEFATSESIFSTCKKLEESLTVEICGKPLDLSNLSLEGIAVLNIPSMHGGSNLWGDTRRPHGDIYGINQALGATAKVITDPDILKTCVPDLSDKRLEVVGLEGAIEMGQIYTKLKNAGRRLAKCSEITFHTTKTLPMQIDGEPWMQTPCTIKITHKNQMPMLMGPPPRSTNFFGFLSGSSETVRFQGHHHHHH
Chain of human DGKζ (Q13574 other isoform, or with tags, fused parts or gaps): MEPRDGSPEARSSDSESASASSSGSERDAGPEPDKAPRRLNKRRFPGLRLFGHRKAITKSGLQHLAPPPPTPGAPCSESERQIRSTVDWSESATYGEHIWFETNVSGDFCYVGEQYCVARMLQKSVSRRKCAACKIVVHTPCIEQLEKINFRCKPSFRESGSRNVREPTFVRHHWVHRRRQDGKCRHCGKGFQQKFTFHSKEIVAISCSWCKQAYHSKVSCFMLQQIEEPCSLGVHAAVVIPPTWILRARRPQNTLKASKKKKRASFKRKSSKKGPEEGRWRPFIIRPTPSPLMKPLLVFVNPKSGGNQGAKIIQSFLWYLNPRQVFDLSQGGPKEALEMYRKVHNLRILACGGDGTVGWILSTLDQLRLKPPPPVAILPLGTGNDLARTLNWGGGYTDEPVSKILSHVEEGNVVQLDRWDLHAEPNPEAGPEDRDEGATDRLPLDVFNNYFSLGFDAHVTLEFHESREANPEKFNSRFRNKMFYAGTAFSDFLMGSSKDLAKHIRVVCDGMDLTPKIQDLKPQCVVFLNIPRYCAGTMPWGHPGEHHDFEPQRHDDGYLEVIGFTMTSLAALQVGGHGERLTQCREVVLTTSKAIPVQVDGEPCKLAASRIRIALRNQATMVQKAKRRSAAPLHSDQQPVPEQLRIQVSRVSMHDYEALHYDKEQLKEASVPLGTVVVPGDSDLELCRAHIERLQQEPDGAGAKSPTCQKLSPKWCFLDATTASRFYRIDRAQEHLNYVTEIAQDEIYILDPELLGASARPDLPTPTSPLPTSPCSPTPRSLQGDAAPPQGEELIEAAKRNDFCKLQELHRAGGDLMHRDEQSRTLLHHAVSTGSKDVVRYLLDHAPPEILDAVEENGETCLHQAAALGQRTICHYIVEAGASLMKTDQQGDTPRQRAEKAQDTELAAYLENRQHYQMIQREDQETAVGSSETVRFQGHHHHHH

For orientation: IC50 means the midpoint of a concentration-inhibition curve. One may read the EC50 as the concentration at which the effect is half-maximal. In the case of `COc1ccccc1C(c1ccc(F)cc1)N1CCN(c2c(C#N)c(=O)n(CC3CC3)c3ccc(Br)nc23)CC1` (racemic) [Example 158, 6-bromo-1-(cyclopropylmethyl)-4-(4-((4-fluorophenyl)(2-methoxyphenyl)methyl)piperazin-1-yl)-2-oxo-1,2-dihydro-1,5-naphthyridine-3-carbonitrile], the half-inhibitory concentration (IC50) is 4.59 µM in experiment [1] (setting [4]), 10 µM in experiment [1] (setting [5]), over 240 µM at human DGKα and over 240 µM at human DGKζ (setting [6]). In the experiment with naïve human CD8 T cells, the concentration giving a half-maximal response (EC50) stood at 0.92 µM.

For the compound `CC(c1ccc(F)cc1)N1CCN(c2c(C#N)c(=O)n(CC3CC3)c3ccc(Br)nc23)CC1` (racemic) [Example 162, 6-bromo-1-(cyclopropylmethyl)-4-(4-(1-(4-fluorophenyl)ethyl)piperazin-1-yl)-2-oxo-1,2-dihydro-1,5-naphthyridine-3-carbonitrile], the IC50 is 4.81 µM in experiment [1] (setting [4]); 10 µM in experiment [1] (setting [5]); 160 µM at human DGKα; over 240 µM against human DGKζ (DGKζ IC50, detergent/lipid micelle substrate). Besides, in the experiment on naïve human CD8 T cells, the EC50 was determined as 10 µM.

As for `COCCn1c(=O)c([N+](=O)[O-])c(N2CCN(C(c3ccc(F)cc3)c3ccccc3O)CC2)c2nc(C#N)ccc21` (stereo not shown) [Example 145, 8-(4-((4-fluorophenyl)(2-hydroxyphenyl)methyl)piperazin-1-yl)-5-(2-methoxyethyl)-7-nitro-6-oxo-5,6-dihydro-1,5-naphthyridine-2-carbonitrile], the IC50 worked out at 0.57 µM in experiment [1] (setting [4]), 30 µM at human DGKα, 2.3 µM at human DGKζ (setting [6]) and 0.46 µM in experiment [2]. The EC50 with Human venous whole blood (human whole blood, anti-CD3 plus anti-CD28 as baseline, 3 μM Example 40 co-stimulation as 100% activation, read-out: INF-γ Whole Blood Normalized Agonist EC50) was 1.87 µM; in the experiment on Human venous whole blood (read-out: INF-γ Whole Blood Agonist EC50), 1.33 µM.

As for `COc1ccc2c(c1)C(N1CCN(c3c(C#N)c(=O)n(CC#N)c4ccc(Br)nc34)CC1)CC2` (stereo not shown) [Example 156, 6-bromo-1-(cyanomethyl)-4-(4-(6-methoxy-2,3-dihydro-1H-inden-1-yl)piperazin-1-yl)-2-oxo-1,2-dihydro-1,5-naphthyridine-3-carbonitrile], the IC50 in experiment [3] was over 100 µM; in experiment [1] (setting [4]), 10 µM; in experiment [1] (setting [5]), 10 µM; at human DGKα, 170 µM; at human DGKζ (setting [6]) it was 140 µM. Also, the EC50 in the experiment with naïve human CD8 T cells was determined as 0.14 µM.
